# Where two headings read alike, the source gives them in different places.
# Tests used:
# Abl2 = Abl2 (Homo sapiens, UniProt P42684); test: biochemical; conditions: ATP 10 μM
# [1] = Phase 1 SAD/MAD study of inhaled compound 1 in healthy subjects; assay type: in vivo, human; conditions: for AUC(0-t): read-out: AUC0-24
# Experimental: This is a phase 1, 2-part, double-blind, randomized, placebo controlled, sponsor-open, SAD (Part A) and MAD (Part B). Subjects will participate in only 1 cohort in only 1 study part.
# Part A (SAD): three (3) cohorts of 8 healthy subjects (6 active and 2 placebo). In each cohort, subjects received a single inhaled dose of compound 1 or placebo. […] Cardiodynamic monitoring via Holter monitors was conducted pre-dose and for at least 24 hours following dosing on Day 1 in each cohort, with rest periods for cardiodynamic electrocardiogram (ECG) extractions time matched to the PK sampling time points.
# Part B (MAD): three (3) cohorts of 10 healthy subjects (8 active and 2 placebo). In each cohort, subjects received inhaled doses once daily (QD) for 7 days. […] Blood samples for PK assessment were also collected pre-dose on the morning of Days 3 through 6. Cardiodynamic monitoring via Holter monitors may be conducted pre-dose on Day 1 and pre-dose and for at least 24 hours following dosing on the morning of Day 7 in each cohort with rest periods for cardiodynamic ECG extractions time matched to the PK sampling time points.
# Parts A and B: safety (i.e., physical examinations, vital signs, 12-lead safety ECGs, spirometry, clinical laboratory tests, and adverse events [AEs]) were assessed throughout the study; blood and urine samples were collected for safety assessments. All subjects who received at least one dose of study drug (including subjects who terminated the study early) returned to the CRU 7 (±2) days after the last study drug administration for follow-up procedures, and to determine if any AEs have occurred since the last study visit.
# Part B: subjects received inhaled doses QD for 7 days using a nebulizer device.
# Morning doses on Days 1 and 7 were administered under fasting conditions due to cardiodynamic monitoring. On all other times, doses were administered at least 30 minutes after completion of a meal or snack. Hour 0 was defined as the beginning of inhalation in each morning dose administration.
# AUC0-24, AUC0-∞, Cmax and t1/2 are presented as arithmetic mean (standard deviation). Tmax is presented as median (minimum, maximum).
# [2] = test system: IL-13-induced STAT6 phosphorylation in the human bronchial epithelial cell line BEAS-2B; test: IL-13-induced STAT6 phosphorylation in BEAS-2B cells; assay type: cell-based
# [3] = test system: TSLP-evoked TARC release in human peripheral blood mononuclear cells; test: Inhibition of TSLP-evoked TARC release in human PBMC; assay type: cell-based; conditions: PBMC from 3 to 5 donors, TSLP 10 ng/mL, 48 hours, read-out: pIC50 ± st. dev., inhibition of TSLP-evoked TARC release (converted)
# [4] = Human plasma protein binding; assay type: in vitro ADME
# [5] = test system: IL-13 induced pSTAT6 in lung tissue; test: Murine model of IL-13 induced pSTAT6 induction in lung tissue; assay type: in vivo; conditions: mouse lung, oral aspiration 1 mg/mL 50 μL, IL-13 challenge at 4 h; scale 0% to 100% inhibitory effect
# Excerpt: Assay 3: Murine (Mouse) Model of IL-13 induced pSTAT6 Induction in Lung Tissue
# IL-13 is an important cytokine underlying the pathophysiology of asthma (Kudlacz et al. Eur. J. Pharmacol, 2008, 582,154-161). IL-13 binds to cell surface receptors activating members of the Janus family of kinases (JAK) which then phosphorylate STAT6 and subsequently activates further transcription pathways. In the described model, a dose of IL-13 was delivered locally into the lungs of mice to induce the phosphorylation of STAT6 (pSTAT6) which is then measured as the endpoint.
# Adult Balb/c mice from Harlan were used in the assay. […] Animals were placed in lateral recumbency post dose and monitored for full recovery from anesthesia before being returned to their home cage. Four hours later, animals were once again briefly anesthetized and challenged with either vehicle or IL-13 (0.03 μg total dose delivered, 50 μL total volume) via oral aspiration before being monitored for recovery from anesthesia and returned to their home cage. […] Plasma and lung levels of test compound were determined by LC-MS analysis against analytical standards constructed into a standard curve in the test matrix. A lung to plasma ratio was determined as the ratio of the lung concentration in ng/g to the plasma concentration in ng/mL at 5 hours. […]
# [6] = healthy subjects, 1 mg to 10 mg
# [7] = human, plasma, inhaled or intranasal, 1 mg, healthy subjects, inhaled 1 mg QD, Day 1, mean
# [8] = human, plasma, inhaled or intranasal, 1 mg, healthy subjects, inhaled 1 mg QD, Day 7, mean
# [9] = human, plasma, inhaled or intranasal, 1 mg, healthy subjects, single inhaled dose 1 mg, mean
# [10] = human, plasma, inhaled or intranasal, 3 mg, healthy subjects, inhaled 3 mg QD, Day 1, mean
# [11] = human, plasma, inhaled or intranasal, 3 mg, healthy subjects, inhaled 3 mg QD, Day 7, mean
# [12] = human, plasma, inhaled or intranasal, 3 mg, healthy subjects, single inhaled dose 3 mg, mean
# [13] = human, plasma, inhaled or intranasal, 10 mg, healthy subjects, inhaled 10 mg QD, Day 1, mean
# [14] = human, plasma, inhaled or intranasal, 10 mg, healthy subjects, inhaled 10 mg QD, Day 7, mean
# [15] = human, plasma, inhaled or intranasal, 10 mg, healthy subjects, single inhaled dose 10 mg, mean
# Chain of Abl2 (P42684 whole entry): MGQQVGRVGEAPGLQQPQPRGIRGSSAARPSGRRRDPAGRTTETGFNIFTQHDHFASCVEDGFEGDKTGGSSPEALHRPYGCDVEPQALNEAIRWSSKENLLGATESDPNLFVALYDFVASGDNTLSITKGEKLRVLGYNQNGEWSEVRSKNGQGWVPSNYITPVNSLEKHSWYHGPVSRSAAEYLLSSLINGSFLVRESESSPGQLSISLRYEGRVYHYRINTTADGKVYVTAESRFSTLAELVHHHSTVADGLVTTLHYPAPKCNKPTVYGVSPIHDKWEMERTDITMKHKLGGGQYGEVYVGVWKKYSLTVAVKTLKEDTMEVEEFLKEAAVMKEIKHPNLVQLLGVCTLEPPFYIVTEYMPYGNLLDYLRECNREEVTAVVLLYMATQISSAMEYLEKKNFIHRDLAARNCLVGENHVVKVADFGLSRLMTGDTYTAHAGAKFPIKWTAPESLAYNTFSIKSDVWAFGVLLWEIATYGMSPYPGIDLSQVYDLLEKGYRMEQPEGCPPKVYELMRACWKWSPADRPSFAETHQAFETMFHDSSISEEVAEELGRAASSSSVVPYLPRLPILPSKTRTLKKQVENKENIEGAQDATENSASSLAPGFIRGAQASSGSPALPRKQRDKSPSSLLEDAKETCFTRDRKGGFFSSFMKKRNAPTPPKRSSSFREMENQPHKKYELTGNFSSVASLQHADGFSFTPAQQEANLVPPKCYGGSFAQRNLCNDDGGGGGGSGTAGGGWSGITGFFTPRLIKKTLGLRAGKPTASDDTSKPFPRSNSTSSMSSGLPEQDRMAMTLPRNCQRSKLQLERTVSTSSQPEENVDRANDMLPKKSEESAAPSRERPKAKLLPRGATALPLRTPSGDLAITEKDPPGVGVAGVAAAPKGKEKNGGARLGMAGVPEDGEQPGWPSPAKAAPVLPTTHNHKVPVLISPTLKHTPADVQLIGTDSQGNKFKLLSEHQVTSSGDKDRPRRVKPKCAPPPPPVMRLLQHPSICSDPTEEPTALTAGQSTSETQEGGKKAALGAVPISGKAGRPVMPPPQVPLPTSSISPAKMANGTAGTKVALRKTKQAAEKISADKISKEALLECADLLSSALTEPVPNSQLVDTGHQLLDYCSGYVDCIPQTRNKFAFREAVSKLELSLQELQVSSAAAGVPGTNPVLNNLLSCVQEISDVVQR
smiles,measurement,setting,value
"CCc1cc(O)ccc1-c1ccc2c(-c3nc4c([nH]3)CN(C(C)C)[C@H](C(=O)N3CC(N(C)C)C3)C4)n[nH]c2c1 [Compound 1, (S)-(3-(dimethylamino)azetidin-1-yl)(2-(6-(2-ethyl-4-hydroxyphenyl)-1H-indazol-3-yl)-5-isopropyl-4,5,6,7-tetrahydro-3H-imidazo[4,5-c]pyridin-6-yl)methanone]",IC50,Abl2,0.015 µM
same,"changes in laboratory parameters, vital signs, or ECGs",[1]; [6],no clinically relevant changes
same,severity of adverse events,[1]; [6],mild or moderate
same,Tmax,"[1]; healthy subjects, inhaled 1 mg QD, Day 1, median",1.0 h
same,Tmax,"[1]; healthy subjects, inhaled 1 mg QD, Day 7, median",1.0 h
same,Tmax,"[1]; healthy subjects, inhaled 3 mg QD, Day 1, median",1.0 h
same,Tmax,"[1]; healthy subjects, inhaled 3 mg QD, Day 7, median",1.0 h
same,Tmax,"[1]; healthy subjects, inhaled 10 mg QD, Day 1, median",1.0 h
same,Tmax,"[1]; healthy subjects, inhaled 10 mg QD, Day 7, median",1.0 h
same,tolerability,"[1]; healthy subjects, single daily doses 1 mg to 10 mg for 7 days",well tolerated
same,t1/2,"[1]; healthy subjects, single inhaled dose 3 mg, mean",24.73 h
same,Cmax,[1]; [7],0.00533 µg/mL
same,AUC(0-t),[1]; [7],0.0184 µg·h/mL
same,Cmax,[1]; [8],0.0057 µg/mL
same,AUC(0-t),[1]; [8],0.0216 µg·h/mL
same,Cmax,[1]; [9],0.00572 µg/mL
same,AUC(0-t),[1]; [9],0.0185 µg·h/mL
same,half-life,"[1]; human, plasma, inhaled or intranasal, 1 mg, healthy subjects, single inhaled dose 1 mg, mean, read-out: t1/2 (converted)",19.3 h
same,Cmax,[1]; [10],0.0178 µg/mL
same,AUC(0-t),[1]; [10],0.0481 µg·h/mL
same,Cmax,[1]; [11],0.0182 µg/mL
same,AUC(0-t),[1]; [11],0.0523 µg·h/mL
same,Cmax,[1]; [12],0.0141 µg/mL
same,AUC(0-t),[1]; [12],0.0433 µg·h/mL
same,half-life,"[1]; human, plasma, inhaled or intranasal, 3 mg, healthy subjects, single inhaled dose 3 mg, mean, read-out: t1/2 (converted)",24.7 h
same,Cmax,[1]; [13],0.0546 µg/mL
same,AUC(0-t),[1]; [13],0.191 µg·h/mL
same,Cmax,[1]; [14],0.0536 µg/mL
same,AUC(0-t),[1]; [14],0.204 µg·h/mL
same,Cmax,[1]; [15],0.0509 µg/mL
same,AUC(0-t),[1]; [15],0.153 µg·h/mL
same,half-life,"[1]; human, plasma, inhaled or intranasal, 10 mg, healthy subjects, single inhaled dose 10 mg, mean, read-out: t1/2 (converted)",23.1 h
same,Tmax,"[1]; human, plasma, inhaled or intranasal, healthy subjects, following single and multiple inhaled doses, read-out: Tmax",~1 h
same,half-life,"[1]; human, plasma, inhaled or intranasal, healthy subjects, following single and multiple inhaled doses, read-out: terminal elimination half-life (converted)",~24 h
same,AUC(0-inf),"[1]; human, plasma, inhaled or intranasal, healthy subjects, single inhaled dose 1 mg, mean",0.0207 µg·h/mL
same,Tmax,"[1]; human, plasma, inhaled or intranasal, healthy subjects, single inhaled dose 1 mg, median, read-out: Tmax",1 h
same,AUC(0-inf),"[1]; human, plasma, inhaled or intranasal, healthy subjects, single inhaled dose 3 mg, mean",0.0486 µg·h/mL
same,Tmax,"[1]; human, plasma, inhaled or intranasal, healthy subjects, single inhaled dose 3 mg, median, read-out: Tmax",1 h
same,AUC(0-inf),"[1]; human, plasma, inhaled or intranasal, healthy subjects, single inhaled dose 10 mg, mean",0.169 µg·h/mL
same,Tmax,"[1]; human, plasma, inhaled or intranasal, healthy subjects, single inhaled dose 10 mg, median, read-out: Tmax",1 h
same,"neutrophil and hemoglobin reductions, lipid changes",[1]; inhaled administration,not observed
same,IC50,"[2]; JAK IC50 divided by the fraction unbound, read-out: binding-corrected JAK IC50",0.362 mg/L
same,IC50,"[2]; obtained from pIC50 of 7.9, based on a MW of 545.7, read-out: JAK IC50",0.0069 mg/L
same,IC50,[2]; read-out: pIC50 for IL-13-induced STAT6 phosphorylation (converted),0.0126 µM
same,IC50,[3],0.0631 µM
same,fraction unbound,[4],0.019
same,human plasma protein binding,[4],98.1%
same,pSTAT6 inhibition at 5 hours,[5],75
